Laboratory results: PMC7791547, “Biochemical characterization of an E. coli cell division factor FtsE shows ATPase cycles similar to the NBDs of ABC-transporters” (Bioscience Reports, 2021)

How the values were obtained:
FtsE (FtsEEc) [1] = target: T1, FtsE (FtsEEc) (Escherichia coli, UniProt P0A9R7, K41A); experiment: MANT-ATP fluorescence binding; details: labelled compound; 25 mM HEPES pH 7.5, 50 mM KCl, 10 mM MgCl2; Walker A mutant
T1 construct: ftsE ORF in His-pBAD18; His-tagged, soluble, expressed in E. coli C41; Ni-NTA and two SEC rounds
T1 sequence (P0A9R7 whole entry K41A): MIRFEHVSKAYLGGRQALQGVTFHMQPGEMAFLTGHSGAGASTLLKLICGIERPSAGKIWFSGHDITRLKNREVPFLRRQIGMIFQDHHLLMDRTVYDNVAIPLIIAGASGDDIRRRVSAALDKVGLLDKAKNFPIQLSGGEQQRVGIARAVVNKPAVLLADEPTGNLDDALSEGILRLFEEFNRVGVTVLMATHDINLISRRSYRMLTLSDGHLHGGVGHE

FtsE (FtsEEc) [2] = target: T2, FtsE (FtsEEc) (Escherichia coli, UniProt P0A9R7); experiment: fluorescence titration, double reciprocal plot; format: binding
T2 construct: ftsE ORF in His-pBAD18; His-tagged, soluble, expressed in E. coli C41; Ni-NTA and two SEC rounds
T2 sequence (P0A9R7 1-222): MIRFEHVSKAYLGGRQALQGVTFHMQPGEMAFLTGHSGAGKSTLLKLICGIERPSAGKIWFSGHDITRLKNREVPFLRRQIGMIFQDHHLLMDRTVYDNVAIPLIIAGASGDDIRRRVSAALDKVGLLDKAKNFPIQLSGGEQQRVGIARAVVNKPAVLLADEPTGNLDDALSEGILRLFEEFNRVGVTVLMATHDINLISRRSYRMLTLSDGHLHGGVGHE

- Kd (FtsE (FtsEEc) [2]): 21.5 ± 2.2 nM
SMILES: CNc1ccccc1C(=O)O[C@H]1[C@@H](O)[C@H](n2cnc3c(N)ncnc32)O[C@@H]1COP(=O)(O)OP(=O)(O)OP(=O)(O)O [MANT-ATP]
- MANT-ATP fluorescence binding (FtsE (FtsEEc) [1]): ATP binding affinity for FtsE^K41A, and it was found to be much lower than wildtype
